Laboratory results taken from patent EP1568690A1, “The use of carbocyclic and heterocyclic substituted semicarbazones and thiosemicarbazones as sodium channel blockers” (Euro-Celtique S.A., priority 1997, dated 1998).
Read-outs that look alike come from different tables or passages of the source.

Key:
[1] = tested on: maximal electroshock-induced seizures (MES); test: Maximal electroshock-induced seizure (MES) test; type: in vivo; conditions: mice; for ED50: Mus musculus, po, 0.5 h; for MES (ED50 mg/kg): 30 min
Description: Mice were restrained by gripping the loose skin on their dorsal surface and saline-coated corneal electrodes were held lightly against the two cornea. […] A tonic seizure was defined as a hindlimb extension in excess of 90 degrees from plane of the body.
4-(3,4-Methylenedioxyphenoxy)benzaldehyde semicarbazone was administered orally to mice 30 min before the test procedure. […]

Na^+ channel Site 1 = type: binding; conditions: [^3H] saxitoxin, rat forebrain membranes
Na^+ channel Site 2 = type: binding; conditions: [^3H] batrachotoxin, rat forebrain membranes
[2] = tested on: voltage-sensitive Na^+ channels; test: Electrophysiological assay: whole-cell patch-clamp of Na^+ currents in acutely dissociated hippocampal neurons; type: cell-based, rat
Description: Cell preparation: Acute cultures of rat hippocampal neurons were prepared daily using a modification of procedures described previously (Kuo and Bean, Mol. Pharm. 46:716-725 (1994)). Briefly, hippocampi were isolated from 3-11 day old rat pup brains (Sprague-Dawley; Charles River) and were sectioned, by hand, into 0.5 - 1 mm thick transverse slices (Whittemore and Koerner, Eur. J. Pharm. 192:435-438 (1991)). Slices were incubated for at least 30 min at room temperature (20 - 24 °C) in an oxygenated medium (124 mM NaCl, 3.3 mM KCl, 2.4 mM MgSO4, 2.5 mM CaCl2, 1.2 mM KH2PO4, 26 mM NaHCO3, pH = 7.4) continuously bubbled with 5% CO2 / 95 % O2. […]
Patch-clamp recordings of voltage-sensitive Na^+ currents: Whole-cell voltage-clamp recordings were made using conventional patch-clamp technique (Hamill et al., Pfluegers Arch. 391:85-100 (1981)) with an Axopatch 200A amplifier (Axon Instruments, Foster City, CA). […] Currents were recorded at room temperature (22-25°C), filtered at 5 kHz with 4-pole Bessel filter, digitized at 20-50-µs intervals, and stored using Digidata 1200 analog/digital interface with Pclamp6/Clampex software (Axon Instruments). […] The inhibitory potency of drugs was assessed by measuring reductions in the peak amplitude of Na^+ currents induced by increasing concentrations of compounds tested. […]

formalin test in mice = test: Formalin test (antinociceptive activity, time licking/biting injected paw); type: in vivo; conditions: Mus musculus
Description: Analgesic activity of 4-(4-fluorophenoxy)benzaldehyde semicarbazone was assessed in the formalin test. The method of Hunskaar, et al., J. Neurosci. Method 14:69-76 (1985), was used with some modifications as described in the following.
Mice were placed in Plexiglas jars for at least 1 h to accommodate to experimental conditions. Following the accommodation period, mice were weighed and injected with 4-(4-Fluorophenoxy)benzaldehyde semicarbazone by i.p. or p.o. administration. Control mice were injected with saline (10 ml/kg). Fifteen min (i.p.) or 30 min (p.o.) following 4-(4-fluorophenoxy)benzaldehyde semicarbazone administration mice were injected with formalin ([…] of 5% formaldehyde solution in saline) into the dorsal surface of the right hand paw. Mice were immediately transferred to the Plexiglas jars and the amount of time that each mouse spent licking and/or biting the injected paw was recorded for every 5-min period over the 1 h observation period. The data presented here are at 0-5 min (early phase) and from 5-60 min (late phase) following formalin injections. The late phase of the formalin test is the average of eleven 5-min periods.
The compound has a potency of ED50 about 5-10 mg/kg by both routes of administration.

[3] = determined as described in example 38, read-out: MES (ED50 mg/kg)
[4] = determined as described in example 38

For `NC(=O)NN=Cc1ccc(Oc2ccc3c(c2)CCC3)cc1` [4-(5-indanoxy)benzaldehyde semicarbazone, 4-(5-Indanoxy)benzaldehyde semicarbazone], the ED50 [1, 3] was 1.7 mg/kg.
Compound `NC(=O)NN=Cc1ccc(Oc2ccc3c(c2)OCO3)cc1` [4-(3,4-methylenedioxyphenoxy)benzaldehyde semicarbazone] has an ED50 ([1]; read-out: ED50 (the dose provided protection of 50% of animals), administered orally 30 min before the test) of 5.3 mg/kg and an ED50 [1, 3] of 3.4 mg/kg.
`CN(N=Cc1ccc(Oc2ccc(F)cc2)c(F)c1)C(N)=O` [4-(4-Fluorophenoxy)-3-fluorobenzaldehyde 2'-methylsemicarbazone] showed an ED50 [1, 3] of 0.9 mg/kg.
`NC(=O)NNCc1ccc(Oc2ccc(F)cc2)cc1` [4-(4-fluorophenoxy)phenylmethylsemicarbazide] was tested, and the “MES (ED50 mg/kg)” value [1, 4] was 4.2 mg/kg.
`NC(=O)NN=Cc1ccc(OC2CCCCCC2)cc1` [4-cycloheptoxybenzaldehyde semicabazone, 4-Cycloheptyloxybenzaldehyde semicarbazone] was tested, and the ED50 [1, 3] was 3.2 mg/kg.
Compound `NC(=O)NN=Cc1ccc(-c2ccc(F)cc2)c(F)c1` [3-fluoro-4-(4-fluorophenyl)benzaldehyde semicarbazone] has an ED50 [1, 3] of 3 mg/kg.
`CCCCOc1ccc(Oc2ccc(C=NNC(N)=O)cc2)cc1` [4-(4-butoxyphenoxy)benzaldehyde semicarbazone] showed an ED50 [1, 3] of 14.9 mg/kg.
In the case of `CCN(CC)CC(=O)Nc1c(C)cccc1C` [Lidocaine, reference compound], the IC50 (Na^+ channel Site 1) is reported as greater than 100 µM and the IC50 (Na^+ channel Site 2) is reported as 29.9 µM.
`CN(NCc1ccc(Oc2ccc(F)cc2)cc1)C(N)=O` [2'-methyl-4-(4-flourophenoxy)phenylmethylsemicarbazide] showed an ED50 [1, 3] of 3.2 mg/kg.
With `NC(=O)NN=Cc1ccc(Oc2ccc(F)cc2)cc1` [4-(4-fluorophenoxy)benzaldehyde semicarbazone] the “effect on Na^+ currents” value ([2]; concentrations between 0.1 - 10 µM, holding membrane voltage of -100 mV) was “very little effect”, the Kd ([2]; for inactivated Na^+ channels, read-out: apparent antagonist dissociation constant (Kd)) was roughly 0.6 µM and the IC50 (Na^+ channel Site 1) was greater than 100 µM. The IC50 (Na^+ channel Site 2) was 22 µM, the ED50 (formalin test in mice; ip, 0.25 h, i.p., formalin 15 min after administration) was 5 to 10 mg/kg and the ED50 (formalin test in mice; po, 0.5 h, p.o., formalin 30 min after administration) was 5 to 10 mg/kg. For the same compound, the ED50 [1, 3] was 1.6 mg/kg.
“4-(4-fluorophenyl)benzaldehyde 2'-methylsemicarbazone” was tested, and the “MES (ED50 mg/kg)” value [1, 4] was 1.5 mg/kg.
